In the supplement of paper PMC10307832:

Key:
Test in all cases: relative viability (nuclei count vs DMSO), 5 days (fraction); higher = more cells survive
ChaGo-K-1 = test system: ChaGo-K-1
How it was run: (§1)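 Dosing by pin tool came one day after lung cancer cell lines were seeded in 1536-well plates, using either one drug or a fixed anchor-drug dose plus five library-drug doses (not always all listed) in √10 steps. After 5 days, nuclei were counted on 4× images. Relative viability is treated-well nuclei count divided by vehicle-well nuclei count, and values are medians of duplicate plates.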

HARA = test system: HARA
How it was run: as §1

NCI-H441 = test system: NCI-H441
How it was run: as §1

HCC-827 = test system: HCC-827
How it was run: as §1

LCLC-97TM1 = test system: LCLC-97TM1
How it was run: as §1

NCI-H1437 = test system: NCI-H1437
How it was run: as §1

NCI-H322M = test system: NCI-H322M
How it was run: as §1

EMC-BAC-2 = test system: EMC-BAC-2
How it was run: as §1

PC-3 [JPC-3] = test system: PC-3 [JPC-3]
How it was run: as §1

NCI-H460 = test system: NCI-H460
How it was run: as §1

NCI-H661 = test system: NCI-H661
How it was run: as §1

EKVX = test system: EKVX
How it was run: as §1

H3255 = test system: H3255
How it was run: as §1

NCI-H1915 = test system: NCI-H1915
How it was run: as §1

HCC-15 = test system: HCC-15
How it was run: as §1

NCI-H1793 = test system: NCI-H1793
How it was run: as §1

LU99A = test system: LU99A
How it was run: as §1

NCI-H1944 = test system: NCI-H1944
How it was run: as §1

LC-2-ad = test system: LC-2-ad
How it was run: as §1

NCI-H1792 = test system: NCI-H1792
How it was run: as §1

NCI-H2126 = test system: NCI-H2126
How it was run: as §1

SK-LU-1 = test system: SK-LU-1
How it was run: as §1

NCI-H23 = test system: NCI-H23
How it was run: as §1

O=C(O)CCCCC(CCSCc1ccccc1)SCc1ccccc1 (configuration not stated) [CPI-613] + Cc1nc(Nc2ncc(C(=O)Nc3c(C)cccc3Cl)s2)cc(N2CCN(CCO)CC2)n1 [Dasatinib] (partner 0.075 µM)
relative viability (ChaGo-K-1; first compound 5 µM): 0.583
relative viability (ChaGo-K-1; first compound 15.81 µM): 0.594
relative viability (ChaGo-K-1; first compound 50 µM): 0.594
relative viability (ChaGo-K-1; first compound 158.11 µM): 0.336
relative viability (ChaGo-K-1; first compound 500 µM): 0.146
relative viability (HARA; first compound 15.81 µM): 0.23
relative viability (HARA; first compound 50 µM): 0.309
relative viability (HARA; first compound 158.11 µM): 0.149
relative viability (HARA; first compound 500 µM): 0.0196
relative viability (NCI-H441; first compound 5 µM): 0.581
relative viability (NCI-H441; first compound 15.81 µM): 0.52
relative viability (NCI-H441; first compound 50 µM): 0.484
relative viability (NCI-H441; first compound 158.11 µM): 0.3
relative viability (NCI-H441; first compound 500 µM): 0.044
relative viability (HCC-827; first compound 5 µM): 0.262
relative viability (HCC-827; first compound 15.81 µM): 0.295
relative viability (HCC-827; first compound 50 µM): 0.405
relative viability (HCC-827; first compound 158.11 µM): 0.315
relative viability (HCC-827; first compound 500 µM): 0.353
relative viability (LCLC-97TM1; first compound 5 µM): 0.843
relative viability (LCLC-97TM1; first compound 15.81 µM): 0.901
relative viability (LCLC-97TM1; first compound 50 µM): 0.791
relative viability (LCLC-97TM1; first compound 158.11 µM): 0.634
relative viability (LCLC-97TM1; first compound 500 µM): 0.0334
relative viability (NCI-H1437; first compound 5 µM): 0.388
relative viability (NCI-H1437; first compound 15.81 µM): 0.314
relative viability (NCI-H1437; first compound 50 µM): 0.381
relative viability (NCI-H1437; first compound 500 µM): 0.304
relative viability (NCI-H322M; first compound 5 µM): 0.248
relative viability (NCI-H322M; first compound 15.81 µM): 0.245
relative viability (NCI-H322M; first compound 50 µM): 0.257
relative viability (NCI-H322M; first compound 158.11 µM): 0.23
relative viability (NCI-H322M; first compound 500 µM): 0.0545
relative viability (EMC-BAC-2; first compound 5 µM): 0.303
relative viability (EMC-BAC-2; first compound 15.81 µM): 0.187
relative viability (EMC-BAC-2; first compound 50 µM): 0.309
relative viability (EMC-BAC-2; first compound 158.11 µM): 0.206
relative viability (EMC-BAC-2; first compound 500 µM): 0.0369
relative viability (PC-3 [JPC-3]; first compound 5 µM): 0.903
relative viability (PC-3 [JPC-3]; first compound 15.81 µM): 0.948
relative viability (PC-3 [JPC-3]; first compound 50 µM): 0.909
relative viability (PC-3 [JPC-3]; first compound 158.11 µM): 0.879
relative viability (PC-3 [JPC-3]; first compound 500 µM): 0.348
relative viability (NCI-H460; first compound 5 µM): 0.54
relative viability (NCI-H460; first compound 15.81 µM): 0.454
relative viability (NCI-H460; first compound 50 µM): 0.572
relative viability (NCI-H460; first compound 158.11 µM): 0.334
relative viability (NCI-H460; first compound 500 µM): 0.317
relative viability (NCI-H661; first compound 5 µM): 0.863
relative viability (NCI-H661; first compound 15.81 µM): 0.83
relative viability (NCI-H661; first compound 50 µM): 0.798
relative viability (NCI-H661; first compound 158.11 µM): 0.312
relative viability (NCI-H661; first compound 500 µM): 0.155
relative viability (EKVX; first compound 5 µM): 0.561
relative viability (EKVX; first compound 15.81 µM): 0.482
relative viability (EKVX; first compound 50 µM): 0.565
relative viability (EKVX; first compound 158.11 µM): 0.466
relative viability (EKVX; first compound 500 µM): 0.517
relative viability (H3255; first compound 5 µM): 0.408
relative viability (H3255; first compound 15.81 µM): 0.307
relative viability (H3255; first compound 50 µM): 0.346
relative viability (H3255; first compound 500 µM): 0.335
relative viability (NCI-H1915; first compound 5 µM): 0.294
relative viability (NCI-H1915; first compound 15.81 µM): 0.244
relative viability (NCI-H1915; first compound 50 µM): 0.245
relative viability (NCI-H1915; first compound 158.11 µM): 0.228
relative viability (NCI-H1915; first compound 500 µM): 0.169
relative viability (HCC-15; first compound 5 µM): 0.56
relative viability (HCC-15; first compound 15.81 µM): 0.529
relative viability (HCC-15; first compound 50 µM): 0.552
relative viability (HCC-15; first compound 158.11 µM): 0.308
relative viability (HCC-15; first compound 500 µM): 0.0395
relative viability (NCI-H1793; first compound 5 µM): 0.327
relative viability (NCI-H1793; first compound 15.81 µM): 0.317
relative viability (NCI-H1793; first compound 50 µM): 0.421
relative viability (NCI-H1793; first compound 158.11 µM): 0.165
relative viability (NCI-H1793; first compound 500 µM): 0.018
relative viability (LU99A; first compound 5 µM): 0.551
relative viability (LU99A; first compound 15.81 µM): 0.577
relative viability (LU99A; first compound 50 µM): 0.424
relative viability (LU99A; first compound 158.11 µM): 0.426
relative viability (LU99A; first compound 500 µM): 0.0381
relative viability (NCI-H1944; first compound 5 µM): 0.212
relative viability (NCI-H1944; first compound 15.81 µM): 0.219
relative viability (NCI-H1944; first compound 50 µM): 0.188
relative viability (NCI-H1944; first compound 158.11 µM): 0.19
relative viability (NCI-H1944; first compound 500 µM): 0.0792
relative viability (LC-2-ad; first compound 5 µM): 0.488
relative viability (LC-2-ad; first compound 15.81 µM): 0.51
relative viability (LC-2-ad; first compound 50 µM): 0.573
relative viability (LC-2-ad; first compound 158.11 µM): 0.259
relative viability (LC-2-ad; first compound 500 µM): 0.0544
relative viability (NCI-H1792; first compound 5 µM): 0.772
relative viability (NCI-H1792; first compound 15.81 µM): 0.748
relative viability (NCI-H1792; first compound 50 µM): 0.789
relative viability (NCI-H1792; first compound 158.11 µM): 0.669
relative viability (NCI-H1792; first compound 500 µM): 0.766
relative viability (NCI-H2126; first compound 5 µM): 0.561
relative viability (NCI-H2126; first compound 15.81 µM): 0.58
relative viability (NCI-H2126; first compound 50 µM): 0.605
relative viability (NCI-H2126; first compound 158.11 µM): 0.331
relative viability (NCI-H2126; first compound 500 µM): 0.107
relative viability (SK-LU-1; first compound 5 µM): 0.176
relative viability (SK-LU-1; first compound 15.81 µM): 0.18
relative viability (SK-LU-1; first compound 50 µM): 0.187
relative viability (SK-LU-1; first compound 158.11 µM): 0.151
relative viability (SK-LU-1; first compound 500 µM): 0.0997
relative viability (NCI-H23; first compound 5 µM): 0.725
relative viability (NCI-H23; first compound 15.81 µM): 0.635
relative viability (NCI-H23; first compound 50 µM): 0.621
relative viability (NCI-H23; first compound 158.11 µM): 0.293
relative viability (NCI-H23; first compound 500 µM): 0.017
